Test results as given in patent US12527830B2, “Method for treating and preventing ulcerative colitis and method for DAI reduction” (BEIJING WEHAND-BIO PHARMACEUTICAL CO., LTD, priority 2022, dated 2026).

Tested on: UC model mice
Experiment: 3% DSS-induced ulcerative colitis model in mice: colon length, body weight, Disease Activity Index (DAI)
Type: in vivo
Conditions: positive drug group, 500 mg/kg/d by gavage, 3% DSS mice
Procedure: Mice aged 6-8 weeks were adaptively kept in an animal house for 3 days. After weighing, they were randomly divided into 8 groups (counted as Day 0), with 5-6 mice in each group. Experimental grouping was as follows: group 1, normal control; group 2, model; group 3, positive control; and groups 4-8, SZ-A with different administration doses, respectively. 3% DSS was formulated as follows: 3 g of DSS (Dextran Sulfate Sodium Salt) was dissolved in 100 mL of sterile water; The mulberry twig extract as prepared in Preparative Example 1 was formulated at different concentrations and dissolved in 1% CMC solution; Drug as positive control: Sulfasalazine Enteric-Coated Tablets (NMPN H31020557). On the day when grouping was done, the mice in group 8, SZ-A-5 (pretreatment) group, were administered with a mulberry twig extract by oral gavage (see the following table for dosages) once a day. All groups are normally available to food and water. […] After 5 days from the start of modelling, the access to 3% DSS was stopped, and all groups had normal drinking water instead, with the administration done normally. The mice were administered continuously and observed for 10 days, and euthanized by cervical dislocation. The colons of the mice were removed by dissection, and the lengths of the colons were measured and photographed. During the administration, the weights of the mice in each group were measured. During the modelling and administration, stool texture and blood in stool of the mice were monitored daily, and Disease Activity Index, DAI, for the mice was scored according to Table 2 below. [table] [table] • Note: DAI=Score for Weight Loss+Score for Stool Texture+Score for Fecal Occult Blood; Normal Stool: Shaped Stool; Mushy Stool: Pasty, Semi-Shaped Stool without Adhering to Anus; Liquid Stool: Thin, Watery Stool that may Adhere to Anus. Disease Activity Index (DAI) scores for mice were compared using the mulberry twig extracts in each preparative example with reference to the experimental steps in sections 1.1-1.3 above. […]

O=C(O)c1cc(N=Nc2ccc(S(=O)(=O)Nc3ccccn3)cc2)ccc1O [positive drug, 5-[p-(2-pyridylsulfamoyl)phenylazo]salicylic acid]
inhibition of colonic atrophy (colon length) compared with model group (FIG. 1-2): significantly inhibited colonic atrophy
inhibition of weight loss compared with model group (FIG. 3): inhibit weight loss
reduction of Disease Activity Index, DAI, compared with model group (FIG. 4): reduce Disease Activity Index
